Source: ChEMBL document CHEMBL5360542, “Current development of β-carboline derived potential antimalarial scaffolds” (Eur J Med Chem, 2023)
Converted amounts (≈) assume the structure as drawn.

Columns and labels:
[1] = system: Plasmodium falciparum; test: Antimalarial activity against artemisinin-sensitive parental Plasmodium falciparum 3D7 infected in O positive erythrocytes assessed as reduction in parasite growth incubated for 48 hrs by giemsa staining based assay; assay type: functional, organism-based; conditions: 3D7, Erythrocyte
[2] = system: Plasmodium falciparum; test: Antimalarial activity against artemisinin-resistant Plasmodium falciparum R539T infected in O positive erythrocytes assessed as reduction in parasite growth incubated for 48 hrs by giemsa staining based assay; assay type: functional, organism-based; conditions: Erythrocyte
[3] = system: Plasmodium berghei; test: (§1) Antiplasmodial activity against Plasmodium berghei NK-65 infected in Swiss albino mouse assessed as mean survival time of mouse at 100 mg/kg, po administered once daily for 4 days followed by artesunate addition at 50 mg/kg for 60 mins and measured 24 hrs post last dose by giemsa staining based analysis; assay type: functional; conditions: time 5 day
[4] = system: Plasmodium falciparum; test: Antimalarial activity against chloroquine-resistant Plasmodium falciparum RKL-9 transfected in A positive human erythrocytes assessed as reduction in schizont maturation incubated for 48 hrs by giemsa stain based assay; assay type: functional, organism-based; conditions: RKL-9, 48 h
[5] = Selectivity index, ratio of IC50 for chloroquine-resistant Plasmodium falciparum RKL-9 transfected in A positive human erythrocytes to IC50 for chloroquine-sensitive Plasmodium falciparum 3D7 transfected in A positive human erythrocytes; assay type: functional
[6] = system: Plasmodium berghei; test: as §1, with “as reduction” for “as mean survival time”, “of parasitaemia” for “of mouse”, “analysis relative to control” for “analysis”; assay type: functional; set-up: scale not given: the % may be the effect or the level left; conditions: time 5 day
[7] = Cytotoxicity against human dermal fibroblast cultured as 2D cells assessed as inhibition of cell growth incubated for 48 hrs by MTT assay; assay type: toxicity, cell-based; conditions: human dermal fibroblasts cultured as 2D cells
[8] = system: Plasmodium falciparum; test: Antimalarial activity against chloroquine-sensitive Plasmodium falciparum 3D7 transfected in A positive human erythrocytes assessed as reduction in schizont maturation incubated for 48 hrs by giemsa stain based assay; assay type: functional, organism-based; conditions: 3D7, 48 h
[9] = system: Plasmodium falciparum; test: Antimalarial activity against chloroquine-sensitive Plasmodium falciparum […] assessed as reduction in parasite growth; assay type: functional, organism-based
[10] = system: Plasmodium falciparum; test: Antimalarial activity against chloroquine-sensitive Plasmodium falciparum 3D7 by SYBR green assay; assay type: functional, organism-based
[11] = system: Plasmodium falciparum; test: Antimalarial activity against Plasmodium falciparum NF54 infected in human erythrocytes assessed as reduction in parasitemia incubated for 48 hrs by [3H]-hypoxanthine based liquid scintillation counting analysis; conditions: NF54, Erythrocyte

With COc1ccc(C2NCCc3c2[nH]c2ccccc32)cc1OC (stereo not drawn) as the molecule, how does the IC50 [1] read?
The IC50 was 3.03 µM.

And the IC50 [2]?
Its IC50 is 2.99 µM.

Which Survival [3] does the source give for COC(=O)[C@@H]1Cc2c([nH]c3ccccc23)[C@@H](c2ccc3c(c2)OCO3)N1 here?
The Survival was 25.8 days.

What about the IC50 [4] of the same molecule?
The IC50 was under 1 µg/mL.

What about the “Selectivity Index” value [5] of the same molecule?
Its value is over 10.

And the Activity [6]?
The Activity was 99.69%.

What about the CC50 at 48 h [7] of the same molecule?
Its CC50 at 48 h is over 640 µg/mL.

What about the IC50 [8] of the same molecule?
Its IC50 is under 1 µg/mL.

With O=C(O)CCc1nccc2c1[nH]c1ccccc12 as the molecule, how does the IC50 [9] read?
The IC50 was 0.0767 µg/mL (≈ 0.319 µM).

Which IC50 [10] does the source give for O=C(c1c[nH]c2ccc(O)cc12)c1nccc2c1[nH]c1ccc(O[C@@H]3O[C@H](CO)[C@@H](O)[C@H](O)[C@H]3O)cc12 here?
The IC50 was 5 µM.

With Clc1cc(Cl)c(Cl)c(C2NCCc3c2[nH]c2ccccc32)c1 (stereo not drawn) as the molecule, how does the IC50 [1] read?
The IC50 was 3.43 µM.

What about the IC50 [2] of the same molecule?
Its IC50 is 4.89 µM.

For C[C@H]1Cc2c([nH]c3cc(Cl)c(F)cc23)[C@@]2(N1)C(=O)Nc1ccc(Cl)cc12 [CIPARGAMIN], which IC50 [11] is on record?
The IC50 was 0.0005 µM.
